Results published in US9115101B2 (Genentech, Inc., priority 2012, dated 2015).
pIC50: −log10 of the molar value.

Biological target: T1, RORc ligand binding domain (Homo sapiens, UniProt P51449)
T1 construct: host or cells: E. coli
T1 sequence (P51449 269-508 limits assumed): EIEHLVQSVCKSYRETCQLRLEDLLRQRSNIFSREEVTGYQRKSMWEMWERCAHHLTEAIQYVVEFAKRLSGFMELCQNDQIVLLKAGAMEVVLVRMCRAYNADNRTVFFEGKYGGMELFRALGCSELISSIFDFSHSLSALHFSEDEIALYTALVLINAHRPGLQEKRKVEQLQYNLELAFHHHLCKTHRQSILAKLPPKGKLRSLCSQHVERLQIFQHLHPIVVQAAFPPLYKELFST
Test: In Vitro RORc Ligand Binding Assay (25-[3H]hydroxycholesterol radioligand filtration)
Conditions: In Vitro RORc Ligand Binding Assay; Table 4; read-out: RORc IC50

`C[C@H]1CCC(c2ccccc2)S(=O)(=O)N1Cc1ccc(N2CCN(C3=CC(=O)CC3)CC2)cc1F` (stereo partly drawn) [Example 123, 3-{4-[3-Fluoro-4-((3S)-3-methyl-1,1-dioxo-6-phenyl-[1,2]thiazinan-2-ylmethyl)-phenyl]-piperazin-1-yl}-cyclopent-2-enone] and `C[C@H]1CCC(c2ccccc2)S(=O)(=O)N1Cc1ccc(N2CCN(C3=CC(=O)CCC3)CC2)cc1F` (stereo partly drawn) [Example 188, 3-{4-[3-Fluoro-4-((3S)-3-methyl-1,1-dioxo-6-phenyl-[1,2]thiazinan-2-ylmethyl)-phenyl]-piperazin-1-yl}-cyclohex-2-enone] are within 0.2 log units of each other in pIC50: 7.05 for the first, 6.97 for the second.

Going from `CN/C(=N\C#N)N1CCN(c2ccc(CN3[C@@H](C)CCC(c4ccccc4)S3(=O)=O)c(F)c2)CC1` (stereo partly drawn) [Example 124, 1-(4-{3-Fluoro-4-[(3S)-6-phenyl-3-methyl-1,1-dioxo-[1,2]thiazinan-2-ylmethyl]-phenyl}-piperazin-1-yl)-(Z)-N′-cyano-N-methylacetimid-amide] to `CN/C(=C\[N+](=O)[O-])N1CCN(c2ccc(CN3[C@@H](C)CCC(c4ccccc4)S3(=O)=O)c(F)c2)CC1` (stereo partly drawn) [Example 126, ((E)-1-{4-[3-Fluoro-4-((3S)-3-methyl-1,1-dioxo-6-phenyl-[1,2]thiazinan-2-ylmethyl)-phenyl]-piperazin-1-yl}-2-nitro-vinyl)-methyl-amine], the pIC50 falls from 8.00 to 6.59 (1.41 log units).

First: C[C@H]1CCC(c2ccccc2)S(=O)(=O)N1Cc1ccc(N2CCC(C(=O)NC#N)CC2)cc1F (stereo partly drawn) [Example 125]
Second: C[C@H]1CCC(c2ccccc2)S(=O)(=O)N1Cc1ccc(N2CCC(/C(N)=N/O)CC2)cc1F (stereo partly drawn) [Example 233, 1-[3-Fluoro-4-((3S)-methyl-1,1-dioxo-6-phenyl-[1,2]thiazinan-2-ylmethyl)-phenyl]-N-hydroxy-piperidine-4-carboxamidine]
The pIC50 of the first is 0.33 log units higher: 7.74 for the first, 7.41 for the second.

First: CC(=O)N1CCN(c2ccc(CN3[C@@H](C)CCC(c4ccccc4)S3(=O)=O)c(Cl)c2)CC1 (stereo partly drawn) [Example 180, 1-{4-[3-Chloro-4-((3S)-3-methyl-1,1-dioxo-6-phenyl-[1,2]thiazinan-2-ylmethyl)-phenyl]-piperazin-1-yl}-ethanone]
Second: CC(=O)N1CCN(c2ccc(CN3[C@@H](C)CCC(c4ccccc4)S3(=O)=O)c(F)c2)[C@@H](C)C1 (stereo partly drawn) [Example 237, 1-{4-[3-Fluoro-4-((3S)-methyl-1,1-dioxo-6-phenyl-[1,2]thiazinan-2-ylmethyl)-phenyl]-3-methyl-piperazin-1-yl}-ethanone]
The pIC50 of the first is 2.42 log units lower: 5.80 for the first, 8.22 for the second. The second is the more potent here.

Compared with `CC1CC(=O)C=C(N2CCN(c3ccc(CN4[C@@H](C)CCC(c5ccccc5)S4(=O)=O)c(F)c3)CC2)C1` (stereo partly drawn) [Example 186, 3-{4-[3-Fluoro-4-((3S)-3-methyl-1,1-dioxo-6-phenyl-[1,2]thiazinan-2-ylmethyl)-phenyl]-piperazin-1-yl}-5-methyl-cyclohex-2-enone], `C[C@H]1CCC(c2ccccc2)S(=O)(=O)N1Cc1ccc(N2CCN(C3=CC(=O)CC(C)(C)C3)CC2)cc1F` (stereo partly drawn) [Example 187, 3-{4-[3-Fluoro-4-((3S)-3-methyl-1,1-dioxo-6-phenyl-[1,2]thiazinan-2-ylmethyl)-phenyl]-piperazin-1-yl}-5,5-dimethyl-cyclohex-2-enone] is 0.56 log units lower in pIC50: 6.75 for the first, 6.19 for the second. The first is the more potent here.

Going from `CC1=C(N2CCN(c3ccc(CN4[C@@H](C)CCC(c5ccccc5)S4(=O)=O)c(F)c3)CC2)CCC1=O` (stereo partly drawn) [Example 189, 3-{4-[3-Fluoro-4-((3S)-3-methyl-1,1-dioxo-6-phenyl-[1,2]thiazinan-2-ylmethyl)-phenyl]-piperazin-1-yl}-2-methyl-cyclopent-2-enone] to `CC(=O)N1CCN(c2ccc(CN3[C@@H](C)CCC(c4ccccc4)S3(=O)=O)c(F)c2)C[C@@H]1C(=O)O` (stereo partly drawn) [Example 261, 1-Acetyl-4-[3-fluoro-4-((3S)-methyl-1,1-dioxo-6-phenyl-[1,2]thiazinan-2-ylmethyl)-phenyl]-piperazine-2-carboxylic acid], the pIC50 falls from 7.23 to 6.42 (0.81 log units).

Compared with `C[C@H]1CCC(c2ccccc2)S(=O)(=O)N1Cc1ccc(N2CCC(n3cccn3)CC2)cc1F` (stereo partly drawn) [Example 209, (3S)-2-[2-Fluoro-4-(4-pyrazol-1-yl-piperidin-1-yl)-benzyl]-3-methyl-6-phenyl-[1,2]thiazinane 1,1-dioxide], `C[C@H]1CCC(c2ccccc2)S(=O)(=O)N1Cc1ccc(N2CCC(n3cncn3)CC2)cc1F` (stereo partly drawn) [Example 215, (3S)-2-[2-Fluoro-4-(4-[1,2,4]triazol-1-yl-piperidin-1-yl)-benzyl]-3-methyl-6-phenyl-[1,2]thiazinane 1,1-dioxide] is 0.60 log units higher in pIC50: 6.92 for the first, 7.52 for the second. The second is the more potent here.

`C[C@H]1CCC(c2ccccc2)S(=O)(=O)N1Cc1ccc(N2CCC(c3nnco3)CC2)cc1F` (stereo partly drawn) [Example 210, (3S)-2-[2-Fluoro-4-(4-[1,3,4]oxadiazol-2-yl-piperidin-1-yl)-benzyl]-3-methyl-6-phenyl-[1,2]thiazinane 1,1-dioxide] and `C[C@H]1CCC(c2ccccc2)S(=O)(=O)N1Cc1ccc(N2CCC(c3ncon3)CC2)cc1F` (stereo partly drawn) [Example 235, 2-[2-Fluoro-4-(4-[1,2,4]oxadiazol-3-yl-piperidin-1-yl)-benzyl]-(3S)-methyl-6-phenyl-[1,2]thiazinane 1,1-dioxide] are within 0.2 log units of each other in pIC50: 7.42 for the first, 7.40 for the second.

`C[C@H]1CCC(c2ccccc2)S(=O)(=O)N1Cc1ccc(NC2CCN(S(C)(=O)=O)CC2)cc1` (stereo partly drawn) [Example 216, (1-Methanesulfonyl-piperidin-4-yl)-[4-((3S)-3-methyl-1,1-dioxo-6-phenyl-[1,2]thiazinan-2-ylmethyl)-phenyl]-amine] and `C[C@H]1CCC(c2ccccc2)S(=O)(=O)N1Cc1ccc(NC2CCN(S(C)(=O)=O)CC2)c(F)c1` (stereo partly drawn) [Example 236, [2-Fluoro-4-((3S)-methyl-1,1-dioxo-6-phenyl-[1,2]thiazinan-2-ylmethyl)-phenyl]-(1-methanesulfonyl-piperidin-4-yl)-amine] are within 0.2 log units of each other in pIC50: 8.05 for the first, 8.22 for the second.

`C[C@H]1CCC(c2ccccc2)S(=O)(=O)N1Cc1ccc(N2CCC(n3ccnc3)CC2)cc1F` (stereo partly drawn) [Example 217, (3S)-2-[2-Fluoro-4-(4-imidazol-1-yl-piperidin-1-yl)-benzyl]-3-methyl-6-phenyl-[1,2]thiazinane 1,1-dioxide] and `CC(=O)N1CCN(c2ccc(CN3[C@@H](C)CCC(c4ccccc4)S3(=O)=O)c(F)c2)C[C@@H]1C` (stereo partly drawn) [Example 238, 1-{4-[3-Fluoro-4-((3S)-methyl-1,1-dioxo-6-phenyl-[1,2]thiazinan-2-ylmethyl)-phenyl]-2-methyl-piperazin-1-yl}-ethanone] are within 0.2 log units of each other in pIC50: 7.96 for the first, 8.10 for the second.

First: C[C@@H]1CC(c2ccccc2)S(=O)(=O)N(Cc2ccc(NC3CCN(S(C)(=O)=O)CC3)cc2F)C1 (stereo partly drawn) [Example 227, [3-Fluoro-4-((4R)-methyl-1,1-dioxo-6-phenyl-[1,2]thiazinan-2-ylmethyl)-phenyl]-(1-methanesulfonyl-piperidin-4-yl)-amine]
Second: C[C@@H]1CC(c2ccccc2)S(=O)(=O)N(Cc2ccc(N3CCN(C(=O)CC#N)CC3)cc2F)C1 (stereo partly drawn) [Example 230, 3-{4-[3-Fluoro-4-((4R)-methyl-1,1-dioxo-6-phenyl-[1,2]thiazinan-2-ylmethyl)-phenyl]-piperazin-1-yl}-3-oxo-propionitrile]
The pIC50 of the first is 1.49 log units higher: 8.52 for the first, 7.03 for the second.

Going from `C[C@H]1CCC(c2ccccc2)S(=O)(=O)N1Cc1ccc(N[C@H]2CC[C@@H](n3cnnc3)CC2)cc1F` (stereo partly drawn) [Example 231, [3-Fluoro-4-((3S)-methyl-1,1-dioxo-6-phenyl-[1,2]thiazinan-2-ylmethyl)-phenyl]-(4-[1,2,4]triazol-4-yl-cyclohexyl)-amine] to `C[C@H]1CCC(c2ccccc2)S(=O)(=O)N1Cc1ccc(N[C@H]2CC[C@H](n3cnnc3)CC2)cc1F` (stereo partly drawn) [Example 232, [3-Fluoro-4-((3S)-methyl-1,1-dioxo-6-phenyl-[1,2]thiazinan-2-ylmethyl)-phenyl]-(4-[1,2,4]triazol-4-yl-cyclohexyl)-amine], the pIC50 falls from 7.14 to 6.56 (0.58 log units). The first is the more potent here.

`C[C@H]1CCC(c2ccccc2)S(=O)(=O)N1Cc1ccc(N[C@H]2C[C@H](n3cnnc3)C2)cc1F` (stereo partly drawn) [Example 234, [3-Fluoro-4-((3S)-methyl-1,1-dioxo-6-phenyl-[1,2]thiazinan-2-ylmethyl)-phenyl]-(3-[1,2,4]triazol-4-yl-cyclobutyl)-amine] and `C[C@H]1CCC(c2ccccc2)S(=O)(=O)N1Cc1ccc(N[C@H]2C[C@@H](n3cnnc3)C2)cc1F` (stereo partly drawn) [Example 241, [3-Fluoro-4-((3S)-methyl-1,1-dioxo-6-phenyl-[1,2]thiazinan-2-ylmethyl)-phenyl]-(3-[1,2,4]triazol-4-yl-cyclobutyl)-amine] are within 0.2 log units of each other in pIC50: 6.88 for the first, 7.07 for the second.

First: CC(=O)N1C[C@@H]2CN(c3ccc(CN4[C@@H](C)CCC(c5ccccc5)S4(=O)=O)c(F)c3)C[C@@H]2C1 (stereo partly drawn) [Example 245, 1-{(3aR,6aS)-5-[3-Fluoro-4-((3S)-methyl-1,1-dioxo-6-phenyl-[1,2]thiazinan-2-ylmethyl)-phenyl]-hexahydro-pyrrolo[3,4-c]pyrrol-2-yl}-ethanone]
Second: CC(=O)N1CCN(c2ccc(CN3[C@@H](C)CCC(c4ccccc4)S3(=O)=O)c(F)c2)C[C@@H]1CO (stereo partly drawn) [Example 262, 1-{4-[3-Fluoro-4-((3S)-methyl-1,1-dioxo-6-phenyl-[1,2]thiazinan-2-ylmethyl)-phenyl]-2-hydroxymethyl-piperazin-1-yl}-ethanone]
The pIC50 of the first is 0.37 log units lower: 6.72 for the first, 7.09 for the second. The second is the more potent here.

First: COC(=O)[C@H]1CN(c2ccc(CN3[C@@H](C)CCC(c4ccccc4)S3(=O)=O)c(F)c2)CCN1C(C)=O (stereo partly drawn) [Example 260, 1-Acetyl-4-[3-fluoro-4-((3S)-methyl-1,1-dioxo-6-phenyl-[1,2]thiazinan-2-ylmethyl)-phenyl]-piperazine-2-carboxylic acid methyl ester]
Second: C[C@H]1CN(c2ccc(CN3[C@@H](C)CCC(c4ccccc4)S3(=O)=O)c(F)c2)CCN1C(=O)CC#N (stereo partly drawn) [Example 263, 3-{4-[3-Fluoro-4-((3S)-methyl-1,1-dioxo-6-phenyl-[1,2]thiazinan-2-ylmethyl)-phenyl]-2-methyl-piperazin-1-yl}-3-oxo-propionitrile]
The pIC50 of the first is 0.31 log units lower: 7.51 for the first, 7.82 for the second. The second is the more potent here.
